From PubChem BioAssay AID2060607 (Molecular Pharmacology Branch, DTP, NCI, 2025)
“And” between values parts separate entries of the source, which are not always exact repeats. Equal values may be shown once.

System: 876862-298-R-J1-PDC complex spheroids, viability % test/control
Assay: Anticancer human tumor 876862-298-R-J1-PDC patient-derived endometrial carcinoma cell line growth inhibition [CLK]
Conditions: for viability, T/C: stronger effect = lower value
In short: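 Multi-cell-type spheroids combined patient-derived tumor cells with HUVEC endothelial cells and human mesenchymal stem cells. Paired agents were dosed in half-log steps down from about clinical Cmax, or from 10 microM where Cmax was unknown.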

[1] = curve of first compound, second compound 0.0316 µM
[2] = curve of first compound, second compound 0.1 µM
[3] = curve of first compound, second compound 0.316 µM
[4] = curve of first compound, second compound 1 µM
[5] = curve of first compound, second compound 3.16 µM
[6] = curve of first compound, second compound 10 µM
[7] = second compound 0.0316 µM, first compound 0.00949 µM
[8] = second compound 0.0316 µM, first compound 0.03 µM
[9] = second compound 0.0316 µM, first compound 0.0949 µM
[10] = second compound 0.0316 µM, first compound 0.3 µM
[11] = second compound 0.1 µM, first compound 0.00949 µM
[12] = second compound 0.1 µM, first compound 0.03 µM
[13] = second compound 0.1 µM, first compound 0.0949 µM
[14] = second compound 0.1 µM, first compound 0.3 µM
[15] = second compound 0.316 µM, first compound 0.00949 µM
[16] = second compound 0.316 µM, first compound 0.03 µM
[17] = second compound 0.316 µM, first compound 0.0949 µM
[18] = second compound 0.316 µM, first compound 0.3 µM
[19] = second compound 1 µM, first compound 0.00949 µM
[20] = second compound 1 µM, first compound 0.03 µM
[21] = second compound 1 µM, first compound 0.0949 µM
[22] = second compound 1 µM, first compound 0.3 µM
[23] = second compound 3.16 µM, first compound 0.00949 µM
[24] = second compound 3.16 µM, first compound 0.03 µM
[25] = second compound 3.16 µM, first compound 0.0949 µM
[26] = second compound 3.16 µM, first compound 0.3 µM
[27] = second compound 10 µM, first compound 0.00949 µM
[28] = second compound 10 µM, first compound 0.03 µM
[29] = second compound 10 µM, first compound 0.0949 µM
[30] = second compound 10 µM, first compound 0.3 µM
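Further: spheroids exposed to drugs for 7 days before readout.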
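Wherever viability, T/C is given: 100% = DMSO vehicle control wells.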

Compound: NC(=O)C(=Cn1cnc(-c2cc(C(F)(F)F)cc(C(F)(F)F)c2)n1)c1cncnc1 + CN1CCN(c2cc(C(=O)Nc3cc4cc(-c5cnn(C)c5)ccc4cn3)ccn2)CC1
- IC50 [1]: 29.4 nM
- IC50 [2]: < 9.49 nM
- IC50 [3]: < 9.49 nM
- IC50 [4]: < 9.49 nM
- IC50 [5]: < 9.49 nM
- IC50 [6]: < 9.49 nM
- viability, T/C [7]: 67.5%
- viability, T/C [8]: 49.3%
- viability, T/C [9]: 33%
- viability, T/C [10]: 24.1%
- viability, T/C (second compound 0.0316 µM, first compound 0.949 µM): 11.3%
- viability, T/C (second compound 0.0316 µM, first compound 3 µM): 2.88%
- viability, T/C [11]: 38.5%
- viability, T/C [12]: 30.8%
- viability, T/C [13]: 21.1%
- viability, T/C [14]: 4.49%
- viability, T/C (second compound 0.1 µM, first compound 0.949 µM): 0.38%
- viability, T/C (second compound 0.1 µM, first compound 3 µM): 0.99%
- viability, T/C [15]: 1.38%
- viability, T/C [16]: 0.32%
- viability, T/C [17]: 0.86%
- viability, T/C [18]: 0.98%
- viability, T/C (second compound 0.316 µM, first compound 0.949 µM): 0.83%
- viability, T/C (second compound 0.316 µM, first compound 3 µM): 1.69%
- viability, T/C [19]: 0.33%
- viability, T/C [20]: 0.27%
- viability, T/C [21]: 0.22%
- viability, T/C [22]: 0.36%
- viability, T/C (second compound 1 µM, first compound 0.949 µM): 0.45%
- viability, T/C (second compound 1 µM, first compound 3 µM): 1.17%
- viability, T/C [23]: 0.3%
- viability, T/C [24]: 1.41%
- viability, T/C [25]: 0.93%
- viability, T/C [26]: 0.82%
- viability, T/C (second compound 3.16 µM, first compound 0.949 µM): 1.14%
- viability, T/C (second compound 3.16 µM, first compound 3 µM): 1.63%
- viability, T/C [27]: 1.33%
- viability, T/C [28]: 1.7%
- viability, T/C [29]: 1.02%
- viability, T/C [30]: 1.05%
- viability, T/C (second compound 10 µM, first compound 0.949 µM): 1.22%
- viability, T/C (second compound 10 µM, first compound 3 µM): 1.15%

Compound: C=C(F)C(=O)N1CCN(c2nc(OCC3CCCN3C)nc3c2CCN(c2cccc4cccc(Cl)c24)C3)CC1CC#N (stereo not given)
- viability, T/C (compound 0.0316 µM): 97.6% and 102%
- viability, T/C (compound 0.1 µM): 97.9% and 102%
- viability, T/C (compound 0.316 µM): 92.6% and 96.1%
- viability, T/C (compound 1 µM): 102%
- viability, T/C (compound 3.16 µM): 86.3% and 96.5%
- viability, T/C (compound 10 µM): 2.35% and 15.5%
- IC50 (curve of compound): 5200 nM and 6130 nM

Compound: C#Cc1c(F)ccc2cc(O)cc(-c3ncc4c(N5CC6CCC(C5)N6)nc(OCC56CCCN5CC(F)C6)nc4c3F)c12 (stereo not given)
- viability, T/C (compound 0.0316 µM): 95.8% and 117%
- viability, T/C (compound 0.1 µM): 100% and 96.1%
- viability, T/C (compound 0.316 µM): 90.8% and 110%
- viability, T/C (compound 1 µM): 92.2% and 105%
- viability, T/C (compound 3.16 µM): 103% and 100%
- viability, T/C (compound 10 µM): 81.8% and 86.7%
- IC50 (curve of compound): > 10000 nM

Compound: Nc1ccccc1NC(=O)c1ccc(CNC(=O)OCc2cccnc2)cc1 + CN1CCN(c2cc(C(=O)Nc3cc4cc(-c5cnn(C)c5)ccc4cn3)ccn2)CC1
- IC50 [1]: 4010 nM
- IC50 [2]: < 31.6 nM
- IC50 [3]: < 31.6 nM
- IC50 [4]: < 31.6 nM
- IC50 [5]: < 31.6 nM
- IC50 [6]: < 31.6 nM
- viability, T/C (second compound 0.0316 µM, first compound 0.0316 µM): 86.8%
- viability, T/C (second compound 0.0316 µM, first compound 0.1 µM): 95.2%
- viability, T/C (second compound 0.0316 µM, first compound 0.316 µM): 81.9%
- viability, T/C (second compound 0.0316 µM, first compound 1 µM): 83.9%
- viability, T/C (second compound 0.0316 µM, first compound 3.16 µM): 54.9%
- viability, T/C (second compound 0.0316 µM, first compound 10 µM): 30.6%
- viability, T/C (second compound 0.1 µM, first compound 0.0316 µM): 48.5%
- viability, T/C (second compound 0.1 µM, first compound 0.1 µM): 48.5%
- viability, T/C (second compound 0.1 µM, first compound 0.316 µM): 40.9%
- viability, T/C (second compound 0.1 µM, first compound 1 µM): 34.1%
- viability, T/C (second compound 0.1 µM, first compound 3.16 µM): 15.7%
- viability, T/C (second compound 0.1 µM, first compound 10 µM): 3.34%
- viability, T/C (second compound 0.316 µM, first compound 0.0316 µM): 2.84%
- viability, T/C (second compound 0.316 µM, first compound 0.1 µM): 1.59%
- viability, T/C (second compound 0.316 µM, first compound 0.316 µM): 1.03%
- viability, T/C (second compound 0.316 µM, first compound 1 µM): 0.37%
- viability, T/C (second compound 0.316 µM, first compound 3.16 µM): 0.85%
- viability, T/C (second compound 0.316 µM, first compound 10 µM): 0.12%
- viability, T/C (second compound 1 µM, first compound 0.0316 µM): 0.89%
- viability, T/C (second compound 1 µM, first compound 0.1 µM): 1.78%
- viability, T/C (second compound 1 µM, first compound 0.316 µM): 1.05%
- viability, T/C (second compound 1 µM, first compound 1 µM): 0.95%
- viability, T/C (second compound 1 µM, first compound 3.16 µM): 1.68%
- viability, T/C (second compound 1 µM, first compound 10 µM): 1.65%
- viability, T/C (second compound 3.16 µM, first compound 0.0316 µM): 1.22%
- viability, T/C (second compound 3.16 µM, first compound 0.1 µM): 1.55%
- viability, T/C (second compound 3.16 µM, first compound 0.316 µM): 1.06%
- viability, T/C (second compound 3.16 µM, first compound 1 µM): 1.89%
- viability, T/C (second compound 3.16 µM, first compound 3.16 µM): 2.98%
- viability, T/C (second compound 3.16 µM, first compound 10 µM): 3.09%
- viability, T/C (second compound 10 µM, first compound 0.0316 µM): 0.79%
- viability, T/C (second compound 10 µM, first compound 0.1 µM): 1.03%
- viability, T/C (second compound 10 µM, first compound 0.316 µM): 2.17%
- viability, T/C (second compound 10 µM, first compound 1 µM): 1.89%
- viability, T/C (second compound 10 µM, first compound 3.16 µM): 3.24%
- viability, T/C (second compound 10 µM, first compound 10 µM): 1.78%

Compound: C=CC(=O)Nc1cc(Nc2nccc(-c3cn(C)c4ccccc34)n2)c(OC)cc1N(C)CCN(C)C + CNC(=O)c1ccc(Nc2nc(OC3CCCC3)c3c(-c4ccc5nc(C)oc5c4)c[nH]c3n2)c(OC)c1
- IC50 [1]: 170 nM
- IC50 [2]: < 0.949 nM
- IC50 [3]: < 0.949 nM
- IC50 [4]: < 0.949 nM
- IC50 [5]: < 0.949 nM
- IC50 [6]: < 0.949 nM
- viability, T/C (second compound 0.0316 µM, first compound 0.000949 µM): 74.5%
- viability, T/C (second compound 0.0316 µM, first compound 0.003 µM): 79.6%
- viability, T/C [7]: 69.1%
- viability, T/C [8]: 64%
- viability, T/C [9]: 53.5%
- viability, T/C [10]: 46.6%
- viability, T/C (second compound 0.1 µM, first compound 0.000949 µM): 49.2%
- viability, T/C (second compound 0.1 µM, first compound 0.003 µM): 46%
- viability, T/C [11]: 44.2%
- viability, T/C [12]: 44.1%
- viability, T/C [13]: 41.7%
- viability, T/C [14]: 31.3%
- viability, T/C (second compound 0.316 µM, first compound 0.000949 µM): 46.4%
- viability, T/C (second compound 0.316 µM, first compound 0.003 µM): 41.3%
- viability, T/C [15]: 42.3%
- viability, T/C [16]: 41.1%
- viability, T/C [17]: 34%
- viability, T/C [18]: 27.8%
- viability, T/C (second compound 1 µM, first compound 0.000949 µM): 36.5%
- viability, T/C (second compound 1 µM, first compound 0.003 µM): 30.8%
- viability, T/C [19]: 32.7%
- viability, T/C [20]: 26.9%
- viability, T/C [21]: 30.2%
- viability, T/C [22]: 27.4%
- viability, T/C (second compound 3.16 µM, first compound 0.000949 µM): 24.1%
- viability, T/C (second compound 3.16 µM, first compound 0.003 µM): 27.6%
- viability, T/C [23]: 19.2%
- viability, T/C [24]: 20.9%
- viability, T/C [25]: 20%
- viability, T/C [26]: 19%
- viability, T/C (second compound 10 µM, first compound 0.000949 µM): 23.1%
- viability, T/C (second compound 10 µM, first compound 0.003 µM): 23.4%
- viability, T/C [27]: 21.7%
- viability, T/C [28]: 19.7%
- viability, T/C [29]: 17.9%
- viability, T/C [30]: 17.4%
